Assay results published in patent publication US20140274766A1, “METHODS OF USING F-SPONDIN AS A BIOMARKER FOR CARTILAGE DEGENERATIVE CONDITIONS AND BONE DISEASES” (priority 2009, published 2014).

Tests used:
OA chondrocytes = test: Effect of PGE2 on chondrocytes (secretion, NURR1 QPCR); format: cell-based, human
Procedure: (§1) F-spondin induced both catabolic and anabolic gene/gene products in chondrocytes including BMP-2, type II collagen, TGF-β1, COX-2, mPGES and PGE2. To begin to address the question of whether selected F-spondin effects in cartilage are mediated by prostaglandin production, we have begun studies to characterize the effect of PGE2 in cartilage. Addition of PGE2 (1-10 uM) to cartilage explants inhibited type II collagen, aggrecan expression, ^35SO4 incorporation, as well as increased type II collagen degradation as assessed by C12C ELISA (IBEX). […] Relative to normals, NURR1 was overexpressed in OA cartilage (2-5 fold) and synovium (2 fold), confirmed by QPCR. Incubation of OA chondrocytes with PGE2 (1-10 uM) induced NURR1 expression (20-50 fold), as analyzed by QPCR. Since NURR1 binds to the NURR1 cis-acting sequence (NBRE) in the promoter region of a variety of genes, we examined the effect of adenoviral-mediated over-expression of NURR1 in chondrocytes.

cartilage explants = test: Effect of PGE2 on cartilage explants; format: cell-based, human; details: PGE2 1-10 uM
Procedure: as §1

[1] = test system: F-spondin expression in human chondrocytes; test: Induction of F-spondin expression in human chondrocytes, TaqMan quantitative PCR; format: cell-based
Text: In another particular embodiment, the candidate compound is further tested for an effect in an animal model for arthritis, or a cartilage degenerative condition, wherein said arthritis or cartilage degenerative condition is characterized by elevated levels of F-spondin. Examples of animal models for studying arthritis and cartilage degenerative conditions may be found in the following publications, which are incorporated in their entireties: Ameye, L. G. et al., Current Opinion in Rheumatology (2006), 18(5):537-547; Warskyj, M. and Hukins, D W, Br. J. of Rheumatology (1990), 29:219-221; Bolter, S. M. et al., Biorheology, (2006), 43(3-4):379-388; Carlson, C. S. et al., J. Bone Miner. Res. (1996), September; 11(9):1209-1217; Moreau, M. et al., J. Rheumatology (2006), June; 33(6):1176-1183; Laurent, D. et al. Skeletal Radiol., (2006), August; 35(8):555-564; Hotta, H. et al. J. Orthop. Sci. (2005), November; 10(6):595-607; Mastbergen, S. C. et al. Rheumatology (Oxford), (2006), April; 45(4):405-413; and Mastbergen, S. C. et al., Osteoarthritis Cartilage (2006), January; 14(1):39-46. Chambers M. G. et al., Arthritis and Rheumatism (2001) June 44(6):1455-1465. In another particular embodiment, the potential inducers of F-spondin in cartilage/chondrocytes for use in a therapeutic setting may be selected from the group consisting of prostaglandin E2 (PGE2), cAMP inducers, Bone morphogenic protein 2 (BMP-2), Insulin-like growth factor (IGF), Fibroblast growth factor basic (FGFbasic) and Transforming Growth factor b1 (TGF-b1). […] Accordingly, it is envisioned that these agents may be used for treating conditions as described herein.

[2] = test system: chick sternal chondrocytes; test: Retinoic acid induced maturation of chick sternal chondrocytes (RT-PCR, AP staining); format: cell-based
Procedure: FIGS. 21A and 21B. […] Upper sternal chondrocytes were exposed to 0, 10, 35 or 100 nM retinoic acid (RA) for 5 days in culture. […] (B) Relative gene expression levels of chondrocyte maturation markers were determined by semi-quantitative RT-PCR of RNA harvested from parallel cultures. Values represent mean±std deviation for triplicate samples.
Chondrocytes were isolated from the cephalic and caudal portion of day 14 chick embryo sterna as described by (Teixeira C C, Shapiro I M, Hatori M, Rajpurohit R, Koch C. Retinoic acid modulation of glutathione and cysteine metabolism in chondrocytes. Biochem J 1996; 314 (Pt 1):21-6). After 5 days of primary culture, chondrocytes were separated from the attached fibroblasts, harvested by centrifugation, counted, and plated in tissue culture dishes in complete medium supplemented with hyaluronidase (4-units/ml) to promote attachment. After becoming confluent, and to induce maturation, cells were treated daily with all-trans retinoic acid (35-100 nM) (Sigma) in the presence of ascorbate-2-phosphate (100 μM) for 1 week. Control cultures were treated with an equal volume of vehicle. Cultures were provided with β-glycerophosphate (5 mM) to serve as phosphate donor. For transfections, chondrocytes were transiently transfected with a plasmid encoding full length F-spondin cDNA under control of a CMV promoter, 1 day after plating in monolayer culture, using the FuGene 6 Transfection Reagent (Roche, Nutley, N.J.) according to the manufacturer's specifications. Parallel transfections with a CMV-GFP plasmid was used as a null control and to estimate transfection efficiency.
To investigate the role of F-spondin in chondrocyte maturation, we used an in vitro model in which chick sternal chondrocytes mimic growth plate chondrocytes and undergo terminal differentiation in response to RA treatment. […] Chick chondrocytes were stimulated with increasing doses of RA (10-100 nm) and harvested for gene expression analysis by qPCR after 5 days. The relative gene expression of type X collagen (ColX), alkaline phosphatae (AP), MMP-13, and F-spondin were assessed with increasing maturation on RA stimulation (FIG. 14).
Chondrocytes were isolated from the cephalic (upper) portion of 14 day old chick embryo sterna as previously described (Teixeira, C. C., et al. (1995) Calcif Tissue Int 56:252-56).^15. After 5 days of primary culture, floating chondrocytes were separated from the attached fibroblasts, and plated in tissue culture dishes in DMEM supplemented with 10% FBS and hyaluronidase (4-units/ml) to promote attachment. At confluence, differentiation was induced by daily treatment with all-trans retinoic acid (RA) from 0.1% v/v aliquots of a 1000-fold stock solution in 95% ethanol. Final concentrations ranged from 10 to 100 nM. To examine the effect of F-spondin overexpression, cultures were transfected at 70-80% confluence, with either full length (pFSI), truncated (pFS6) F-spondin cDNAs or control vector pcDNA3 (Invitrogen) using GenePorter transfection reagent (Genlantis, San Diego, Calif.). Differentiation was induced by daily treatments with 100 nM RA, which were initiated the following day. For F-spondin inhibition studies, a TSR domain specific F-spondin antibody (R1), or a spondin domain specific F-spondin antibody (R4) (R1 and R4 antibodies were provided by Dr. Avihu Klar (Hebrew University, Jerusalem, Israel), were added to chondrocyte cultures (1:100 dilution), every other day 1 h prior to RA treatment.
Different regions of the chick growth plate were visually identified and dissected into separate tubes, frozen in liquid nitrogen and crushed. Total RNA was extracted using Trizol® reagent (Life Technologies, Gaitherburg, Md.) per manufacturer's instructions.

bone marrow-derived MSCs = test: Chondrogenesis of bone marrow-derived MSC aggregate cultures; format: cell-based; details: for staining for proteoglycan, type II and type X collagen: 21 d aggregates, adenoviral expression 50 ng/ml; for chondrogenesis in aggregate cultures: adult bone marrow-derived MSCs
Procedure: FIG. 6: Chondrogenesis of postnatal MSCs following exposure to TGF-β and BMP-2. Bone marrow-derived MSCs were modified to express 50 ng/ml BMP-2 or TGF-β1 using first generation recombinant adenoviral vectors and seeded into high density aggregates. After 21 d, aggregates were fixed, sectioned and stained for the presence of chondrogenic markers using toluidine blue (proteoglycan) and immunostaining for type II and X collagen. This pattern was consistent over three experiments.
Upon histological examination important differences between TGF-β1 and BMP-2-treated cultures were noted (FIG. 6). […] We propose to extend these studies further, in order to more fully characterize extracellular matrix protein expression during chondrocyte maturation and the relationship to F-spondin, by comparing the effects of various chondroinductive factors.

CCCCC[C@H](O)/C=C/[C@H]1[C@H](O)CC(=O)[C@@H]1C/C=C\CCCC(=O)O [PGE2, prostaglandin E2]
induction of NURR1 expression (OA chondrocytes; OA chondrocytes, PGE2 1-10 uM, QPCR): 20-50 fold | MMP-1 secretion (OA chondrocytes; chondrocytes): decreased | secretion of IL-6 (OA chondrocytes; chondrocytes): increased | secretion of IL-8 (OA chondrocytes; chondrocytes): increased | secretion of MMP-13 (OA chondrocytes; chondrocytes): increased | 35SO4 incorporation (cartilage explants): inhibited | aggrecan expression (cartilage explants): inhibited | type II collagen degradation (C12C ELISA) (cartilage explants): increased | type II collagen expression (cartilage explants): inhibited | F-spondin expression [1]: induced F-spondin expression

FGF basic: Fibroblast growth factor basic
F-spondin expression [1]: induced F-spondin expression

CC1=C(/C=C/C(C)=C/C=C/C(C)=C/C(=O)O)C(C)(C)CCC1 [RA, all-trans retinoic acid]
F-spondin expression relative to controls ([2]; 100 nM RA, 5 days, p=0.04): approximately 3 fold | MMP-13 expression ([2]; RA 0-100 nM, 5 days, RT-PCR): increased | VEGF expression ([2]; RA 0-100 nM, 5 days, RT-PCR): increased | type I collagen expression ([2]; RA 0-100 nM, 5 days, RT-PCR): pronounced upregulation | type II collagen expression ([2]; RA 0-100 nM, 5 days, RT-PCR): marked downregulation | type X collagen expression ([2]; RA 0-100 nM, 5 days, RT-PCR): did not increase | AP activity (red staining) ([2]; RA 0-100 nm, 5 days): dose dependant increase | increase in F-spondin gene expression ([2]; RA 10-100 nm, 5 days, vs non-stimulated controls): 2- to 4 fold | upregulation of F-spondin following RA treatment ([2]; chick sternal model, p<0.05): 3.5 fold

TGF-β1: Transforming growth factor-beta 1
F-spondin expression [1]: induced F-spondin expression | staining for proteoglycan, type II and type X collagen (bone marrow-derived MSCs): generally lower | chondrogenesis in aggregate cultures (bone marrow-derived MSCs): undergo chondrogenesis

B1: BMP-2: protein that induces the formation of bone and cartilage (protein, listed as Homo sapiens)
chain: MVAGTRCLLALLLPQVLLGGAAGLVPELGRRKFAAASSGRPSSQPSDEVLSEFELRLLSMFGLKQRPTPSRDAVVPPYMLDLYRRHSGQPGSPAPDHRLERAASRANTVRSFHHEESLEELPETSGKTTRRFFFNLSSIPTEEFITSAELQVFREQMQDALGNNSSFHHRINIYEIIKPATANSKFPVTRLLDTRLVNQNASRWESFDVTPAVMRWTAQGHANHGFVVEVAHLEEKQGVSKRHVRISRSLHQDEHSWSQIRPLLVTFGHDGKGHPLHKREKRQAKHKQRKRLKSSCKRHPLYVDFSDVGWNDWIVAPPGYHAFYCHGECPFPLADHLNSTNHAIVQTLVNSVNSKIPKACCVPTELSAISMLYLDENEKVVLKNYQDMVVEGCGCR
F-spondin expression [1]: induced F-spondin expression | staining for proteoglycan, type II and type X collagen (bone marrow-derived MSCs): more intense staining | chondrogenesis in aggregate cultures (bone marrow-derived MSCs): undergo chondrogenesis
